Assay [1] deals with T1, His tagged full-length PTPN1 protein (Homo sapiens, UniProt P18031).
T1 construct: His; made in house
T1 sequence (P18031 1-435): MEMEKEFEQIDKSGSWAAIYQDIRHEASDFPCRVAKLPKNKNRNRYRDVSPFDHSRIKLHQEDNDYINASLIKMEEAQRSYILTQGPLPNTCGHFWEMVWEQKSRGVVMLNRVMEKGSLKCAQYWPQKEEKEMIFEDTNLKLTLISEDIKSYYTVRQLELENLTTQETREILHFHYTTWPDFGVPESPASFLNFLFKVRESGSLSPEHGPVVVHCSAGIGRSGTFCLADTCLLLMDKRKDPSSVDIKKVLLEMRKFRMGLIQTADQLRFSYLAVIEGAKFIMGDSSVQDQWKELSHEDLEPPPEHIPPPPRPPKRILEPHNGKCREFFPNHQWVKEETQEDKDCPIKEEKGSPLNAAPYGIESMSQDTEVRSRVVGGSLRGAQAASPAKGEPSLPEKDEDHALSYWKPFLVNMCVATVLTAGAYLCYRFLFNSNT
The experiment in a line: Mobility Shift Assay (MSA) for PTPN1 inhibitors. It is filed as biochemical. Conditions: enzyme 0.5 nM, substrate 2 μM, 10 minutes preincubation at room temperature. The procedure:
Example 44: Mobility Shift Assay (MSA) Used to Determine Potency of PTPN1 Inhibitors
Compound activity was determined using in house His tagged full-length PTPN1 protein (SEQ ID NO: 3) in an in vitro enzymatic reaction. The enzymatic assay used to determine activity is a mobility shift assay using a LabChip EZ Reader by Caliper Life Sciences. The enzymatic reaction was carried out in assay buffer (50 mM HEPES pH 7.5, 1 mM EGTA, 10 mM EDTA, 0.010% Tween® 20, and 2 mM DTT). The compounds were dispensed on a white 384 well ProxiPlate™ (PerkinElmer Cat #6008289) plate using a Labcyte Echo® liquid handler at varying concentrations (12 point, 1:3 dilution). The enzyme (at 0.5 nM) was incubated with compound for 10 minutes at room temperature. Thereafter, the substrate (phosphorylated insulin receptor probe sequence: ((OG488)-(NH—CH2—CH2—O—CH2—CH2—O—CH2—CO)-T-R-D-I—(PY)-E-T-D-Y—Y—R—K—K—NH2) (SEQ ID NO: 2) was added at 2 μM to the plates and incubated for another 10 minutes at room temperature. Finally, a quench solution (water and 4-bromo-3-(2-oxo-2-propoxyethoxy)-5-(3-{[1-(phenylmethanesulfonyl)piperidin-4-yl]amino}phenyl)thiophene-2-carboxylic acid) was added to the plates, which were then run on the EZ Reader (excitation 488 nm, emission 530 nm) to measure % conversion (the amount of phosphorylated substrate which was de-phosphorylated by PTPN1). […] The % inhibition was then used to calculate the IC50 values.

The target in assay [2] is T2, His tagged PTPN2 (TC45) protein (Homo sapiens, UniProt P17706).
T2 construct: His; made in house
T2 sequence (P17706 1-387 isoform P17706-2): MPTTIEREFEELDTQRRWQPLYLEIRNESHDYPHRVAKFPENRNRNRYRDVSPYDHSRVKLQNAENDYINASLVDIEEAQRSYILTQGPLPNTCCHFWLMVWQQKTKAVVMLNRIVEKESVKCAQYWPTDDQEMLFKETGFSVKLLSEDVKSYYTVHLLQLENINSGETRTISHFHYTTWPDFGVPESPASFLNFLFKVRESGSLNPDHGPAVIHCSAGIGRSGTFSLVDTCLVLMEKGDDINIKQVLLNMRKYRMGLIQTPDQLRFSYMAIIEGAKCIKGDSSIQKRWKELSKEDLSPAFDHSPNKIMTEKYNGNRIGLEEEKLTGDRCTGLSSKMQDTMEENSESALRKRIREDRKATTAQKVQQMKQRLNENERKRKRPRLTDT
The assay is described as follows: Mobility Shift Assay (MSA) for PTPN2 inhibitors. It is filed as biochemical. Particulars: for IC50: enzyme 0.5 nM, substrate 2 μM, 10 minutes preincubation at room temperature; for Thiochromane x-fold>potency biochemical: Table 3, PTPN2 MSA IC50 of chromane comparator over thiochromane. The procedure: Example 43: Mobility Shift Assay (MSA) Used to Determine Potency of PTPN2 Inhibitors
Compound activity was determined using in house His tagged PTPN2 (TC45) protein (SEQ ID NO: 1) in an in vitro enzymatic reaction. The enzymatic assay used to determine activity was a mobility shift assay using a LabChip EZ Reader by Caliper Life Sciences. The enzymatic reaction was carried out in assay buffer (50 mM HEPES pH 7.5, 1 mM EGTA, 10 mM EDTA, 0.01% Tween® 20, and 2 mM DTT). The compounds were dispensed on a white 384 well ProxiPlate™ (PerkinElmer Catalog #6008289) plate using the Labcyte Echo at varying concentrations (12 point, 1:3 dilution). The enzyme (at 0.5 nM) was incubated with compound for 10 minutes at room temperature. Thereafter, the substrate (phosphorylated insulin receptor probe sequence: ((OG488)-(NH—CH2—CH2—O—CH2—CH2—O—CH2—CO)-T-R-D-I—(PY)-E-T-D-Y—Y—R—K—K—NH2) (SEQ ID NO: 2) was added at 2 μM to the plates and incubated for another 10 minutes at room temperature. Finally, a quench solution (water and 4-bromo-3-(2-oxo-2-propoxyethoxy)-5-(3-{[1-(phenylmethanesulfonyl)piperidin-4-yl]amino}phenyl)thiophene-2-carboxylic acid) was added to the plates, which were then run on the EZ Reader (excitation 488 nm, emission 530 nm) to measure % conversion (the amount of phosphorylated substrate which was de-phosphorylated by PTPN2). […] The % inhibition was then used to calculate the IC50 values.

The subject of assay [3] is IFNγ-induced STAT1 phosphorylation (pSTAT1) in B16F10 cells. The experiment in a line: B16F10 Phospho-STAT1 HTRF proximal pharmacodynamic (PD) assay. The format is cell-based, murine. Particulars: for EC50: B16-F10; for Thiochromane x-fold>potency cellular: pSTAT1 EC50 of chromane comparator over thiochromane. On the procedure:
Example 45: B16F10 (Murine Melanoma Cells) Phospho-STAT1 HTRF Proximal Pharmacodynamic (PD) Assay
B16F10 cells were grown and maintained in high glucose DMEM (Gibco, Catalog #11965-092, Dun Laoghaire Co Dublin) supplemented with 10% fetal bovine serum (Gibco, Catalog #10082-139, Dun Laoghaire Co Dublin). The cells were pelleted and resuspended in high glucose DMEM without phenol red (Gibco, Catalog #11054-020, Dun Laoghaire Co Dublin), supplemented with 10% fetal bovine serum and plated in a 384 well Corning plate (product #3765, Corning, NY) at 11,000 cells per well in a volume of 20 μL. The cells were dosed with the compounds of interest using an Echo Liquid Handler (Beckman Coulter, Brea, CA) at 50 μM top dose with 3-fold dilutions down to 0.002679 μM for a 10-point dose response. The plate was incubated for 3 hours at 37° C. and subsequently treated with recombinant mouse IFNγ (R&D Systems, Catalog #485-MI, Minneapolis, MN; 100 nM final concentration) for 10 minutes at 37° C. to induce STAT1 phosphorylation followed by 3.3 μM staurosporine treatment for 1 hour at 37° C. to terminate phosphorylation. Media was then aspirated and 20 μL of 1× lysis buffer/blocking reagent (Cisbio Phospho-STAT1 kit, part #63ADK026PEH, Bedford, MA) was added. The plate was placed on a plate shaker for 30 minutes at room temperature, sealed, and stored at −80° C. until needed. To thaw, the plate was placed on shaker at room temperature until completely thawed while the antibody master mix was made (1:40 Phospho-STAT1 Eu Cryptate antibody, 1:40 Phospho-STAT1 d2 antibody, with the detection buffer; Cisbio Phospho-STAT1 kit, part #63ADK026PEH, Bedford, MA). The antibody master mix was then dispensed at 4 μL per well into a 384 ProxiPlate Plus (PerkinElmer, part #6008289, Waltham, MA) and 16 μL of lysate was added from the Corning plate to the Proxiplate using a VIAFLO 384 (INTEGRA). The plate was incubated for 3 hours at room temperature and read on an EnVision® (Perkin Elmer) plate reader with laser excitation at 335 nm and emission at 665 nm. Dotmatics Studies (Bishop's Stortford, UK) was utilized to generate all dose-response curves and calculate EC50s and are shown in Table 2.
On the technique in general: Time-resolved FRET reads energy transfer from a long-lived donor to a nearby acceptor.

[4] abbreviates: Table 2, 3 hours compound, then mouse IFNγ 100 nM 10 minutes, top dose 50 μM, read-out: B16F10 IFNγ Induced pSTAT1 EC50.
The mark [5] stands for this setting: Mus musculus, Table 3, B16F10 cells, IFNγ-induced, thiochromanes (X = S) and chromane comparators (X = O), read-out: pSTAT1 EC50.

These results are taken from US20250042894A1, “PROTEIN TYROSINE PHOSPHATASE INHIBITORS AND METHODS OF USE THEREOF” (Calico Life Sciences LLC, priority 2021, published 2025).

Like-named read-outs stand apart in the source and are kept apart here.

Consider `O=C1CN(c2c(O)cc3c(c2F)C[C@H](NCC2(F)CC2)CS3)S(=O)(=O)N1` [Compound 125, 5-[(3S)-5-fluoro-3-{[(1-fluorocyclopropyl)methyl]amino}-7-hydroxy-3,4-dihydro-2H-1-benzothiopyran-6-yl]-1λ^6,2,5-thiadiazolidine-1,1,3-trione], for which the IC50 in assay [1] and in assay [2] was 10 to 100 nM throughout. Also, the EC50 in assay [3] (setting [4]) was over 50000 nM.
For the compound `COCCCN[C@@H]1CSc2cc(O)c(N3CC(=O)NS3(=O)=O)c(F)c2C1` [Compound 130, 5-{(3S)-5-fluoro-7-hydroxy-3-[(3-methoxypropyl)amino]-3,4-dihydro-2H-1-benzothiopyran-6-yl}-1λ^6,2,5-thiadiazolidine-1,1,3-trione], the IC50 in assay [1] and in assay [2] was 10 to 100 nM each time. Further, the EC50 in assay [3] (setting [4]) turned out to be 4110 nM.
With `CC(C)(C)OC(=O)N1CCC(CN[C@@H]2CSc3cc(O)c(N4CC(=O)NS4(=O)=O)c(F)c3C2)CC1` [Compound 141, tert-butyl 4-({[(3S)-5-fluoro-7-hydroxy-6-(1,1,4-trioxo-1λ^6,2,5-thiadiazolidin-2-yl)-3,4-dihydro-2H-1-benzothiopyran-3-yl]amino}methyl)piperidine-1-carboxylate], the IC50 in assay [1] and in assay [2] was 10 to 100 nM each time. Moreover, in assay [2], the “Thiochromane x-fold>potency biochemical” value was 1.0. Further, the half-maximal effective concentration (EC50) in assay [3] (setting [4]) and in assay [3] (setting [5]) was 6970 nM each time. Moreover, in assay [3] (Table 3), the “Thiochromane x-fold>potency cellular” value is listed as over 7.2.
Take `O=C1CN(c2c(O)cc3c(c2F)C[C@H](NCC2CCC(C(F)(F)F)CC2)CS3)S(=O)(=O)N1` (stereo partly drawn) [Compound 139, 5-[(3S)-5-fluoro-7-hydroxy-3-({[4-(trifluoromethyl)cyclohexyl]methyl}amino)-3,4-dihydro-2H-1-benzothiopyran-6-yl]-1λ^6,2,5-thiadiazolidine-1,1,3-trione]: the results for the IC50 in assay [1] and in assay [2] were 10 to 100 nM and under 10 nM, respectively. In addition, the “Thiochromane x-fold>potency biochemical” value in assay [2] amounted to 5.4. In addition, the EC50 in assay [3] (setting [4]) and in assay [3] (setting [5]) was over 50000 nM throughout. For the same compound, the “Thiochromane x-fold>potency cellular” value in assay [3] (Table 3) is given as about 1.0.
For the compound `CC1=C(CCN[C@@H]2CSc3cc(O)c(N4CC(=O)NS4(=O)=O)c(F)c3C2)C(C)(C)CCC1` [Compound 140, 5-[(3S)-5-fluoro-7-hydroxy-3-{[2-(2,6,6-trimethylcyclohex-1-en-1-yl)ethyl]amino}-3,4-dihydro-2H-1-benzothiopyran-6-yl]-1λ^6,2,5-thiadiazolidine-1,1,3-trione], the IC50 in assay [1] and in assay [2] was 10 to 100 nM each time. Moreover, the “Thiochromane x-fold>potency biochemical” value in assay [2] came out at 1.5. Moreover, the EC50 in assay [3] (setting [4]) and in assay [3] (setting [5]) was 2950 nM throughout. For the same compound, in assay [3] (Table 3), the “Thiochromane x-fold>potency cellular” value is on record as over 16.9.
Regarding `CCC(C)CCN[C@@H]1CSc2cc(O)c(N3CC(=O)NS3(=O)=O)c(F)c2C1` (stereo partly drawn) [Compound 108, 5-{(3S)-5-fluoro-7-hydroxy-3-[(3-methylpentyl)amino]-3,4-dihydro-2H-1-benzothiopyran-6-yl}-1λ^6,2,5-thiadiazolidine-1,1,3-trione], the IC50 in assay [1] and in assay [2] was under 10 nM throughout. Also, in assay [3] (setting [4]), the EC50 turned out to be 1760 nM.
Take `O=C1CN(c2c(O)cc3c(c2F)C[C@H](NCc2ccccc2)CS3)S(=O)(=O)N1` [Compound 121, 5-[(3S)-3-(benzylamino)-5-fluoro-7-hydroxy-3,4-dihydro-2H-1-benzothiopyran-6-yl]-1λ^6,2,5-thiadiazolidine-1,1,3-trione]: the IC50 in assay [1] and in assay [2] was 10 to 100 nM throughout. Also, the half-maximal effective concentration (EC50) in assay [3] (setting [4]) worked out at 8150 nM.
Take `O=C1CN(c2c(O)cc3c(c2F)C[C@H](NCCc2ccccc2)CS3)S(=O)(=O)N1` [Compound 123, 5-{(3S)-5-fluoro-7-hydroxy-3-[(2-phenylethyl)amino]-3,4-dihydro-2H-1-benzothiopyran-6-yl}-1λ^6,2,5-thiadiazolidine-1,1,3-trione]: the IC50 was 10 to 100 nM in assay [1] and under 10 nM in assay [2]. Moreover, the EC50 in assay [3] (setting [4]) turned out to be 2760 nM.
The corresponding values for `CC(C)(CO)CCN[C@@H]1CSc2cc(O)c(N3CC(=O)NS3(=O)=O)c(F)c2C1` [Compound 106, 5-{(3S)-5-fluoro-7-hydroxy-3-[(4-hydroxy-3,3-dimethylbutyl)amino]-3,4-dihydro-2H-1-benzothiopyran-6-yl}-1λ^6,2,5-thiadiazolidine-1,1,3-trione] are 10 to 100 nM, under 10 nM and 11900 nM.

As usually defined, the IC50 is the concentration at which inhibition is half-maximal. In general, EC50 refers to the concentration that produces a half-maximal response.
